In patent US12612380B2, “Non-lysosomal glucosylceramidase inhibitors and uses thereof” (ALECTOS THERAPEUTICS INC., priority 2019, dated 2026):

biological target: T1, GBA2 (Homo sapiens, UniProt Q9HCG7); assay: Determination of IC50 values for inhibition of GBA2 in cell lysate; assay type: biochemical; design: host or cells: HEK293T (lentiviral transduction, puromycin selection); used as cellular homogenate; details: not given
T1 sequence (Q9HCG7 1-927): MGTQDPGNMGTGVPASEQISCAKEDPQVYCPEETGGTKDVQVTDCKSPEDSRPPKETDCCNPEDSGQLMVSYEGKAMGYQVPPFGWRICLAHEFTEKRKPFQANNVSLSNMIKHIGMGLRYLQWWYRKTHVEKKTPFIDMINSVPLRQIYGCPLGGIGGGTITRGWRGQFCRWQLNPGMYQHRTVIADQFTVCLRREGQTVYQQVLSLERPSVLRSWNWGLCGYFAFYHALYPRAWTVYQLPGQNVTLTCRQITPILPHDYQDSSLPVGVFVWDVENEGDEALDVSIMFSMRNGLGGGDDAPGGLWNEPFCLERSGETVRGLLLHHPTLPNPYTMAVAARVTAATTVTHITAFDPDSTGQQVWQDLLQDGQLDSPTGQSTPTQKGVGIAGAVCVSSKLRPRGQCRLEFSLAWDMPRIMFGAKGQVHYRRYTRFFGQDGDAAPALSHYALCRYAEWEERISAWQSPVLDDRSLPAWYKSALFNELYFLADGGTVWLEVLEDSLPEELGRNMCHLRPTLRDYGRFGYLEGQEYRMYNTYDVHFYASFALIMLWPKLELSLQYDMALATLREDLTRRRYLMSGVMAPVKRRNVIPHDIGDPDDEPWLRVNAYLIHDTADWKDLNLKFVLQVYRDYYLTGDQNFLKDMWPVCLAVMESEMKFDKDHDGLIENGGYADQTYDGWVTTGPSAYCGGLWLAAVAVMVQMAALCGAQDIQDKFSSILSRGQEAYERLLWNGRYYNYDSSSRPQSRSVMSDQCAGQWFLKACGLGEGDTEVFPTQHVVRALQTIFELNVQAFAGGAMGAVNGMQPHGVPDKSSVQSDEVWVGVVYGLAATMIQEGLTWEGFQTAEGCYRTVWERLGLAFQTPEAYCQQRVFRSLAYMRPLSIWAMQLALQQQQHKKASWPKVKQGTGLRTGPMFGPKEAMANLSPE
Description: Assay for Determination of IC50 Values for Inhibition of GBA2 in Cell Lysate
Stable GBA2-expressing HEK293T cells were generated as follows. The PCR-amplified human GBA2 (GBA2 nucleotide accession number BC011363) using the following primers: Sense 5′---CGCAAATGGGCGGTAGGCGTG (SEQ ID NO:2)---3′ and antisense 5′---TAGTCAGCCATGGGGCGGAGA (SEQ ID NO:3)---3′) was cloned into pLenti-GIII-CMV by ABM Inc. The correctness of the construct was verified by sequencing. Lentivirus particles containing GBA2 in the pLenti-GIII-CMV plasmid were prepared using a third Generation Virus Packaging Mix (ABM cat #LV053-G074) in HEK293T cells and supplied as a virus particle suspension. The virus suspension was used for infection of HEK293T cells. Cell populations stably expressing human GBA2 were selected using puromycin for several weeks as determined by activity assays and western blot.
Various concentrations of test compounds were prepared in DMSO and then diluted into buffer consisting of 100 mM citric acid, 200 mM disodium phosphate with 1% v/v C10E6, pH 5.5. Cellular homogenates (0.25 mg/mL) of the stable HEK293T-overexpressing GBA2 cell line were preincubated for 10 min on ice with an inhibitor of GCase (20 μM (6R,7R,8S)-8-ethyl-4-azaspiro[2.5]octane-6,7-diol). The reaction solution consisted of 20 μL of 750 μM 4-methylumbelliferone-β-D glucopyranoside in 5% DMSO in the same buffer, 20 μL of GBA2-cellular homogenate pre-treated with (6R,7R,8S)-8-ethyl-4-azaspiro[2.5]octane-6,7-diol and 20 μL of various concentrations of test compound in 10% DMSO in the same buffer. The final concentrations in the reaction were 0.083 mg/mL GBA2-cellular homogenate, 250 μM 4-methylumbelliferone-β-D glucopyranoside, and various concentrations of inhibitor. The inhibitor and GBA2-cellular homogenate were preincubated together for 5 min at 37° C. The reaction was initiated by addition of substrate and allowed to proceed for 20 min at 37° C. to assess GBA2 activity. Reactions were stopped by the addition of an equal volume (60 μL) of 0.5 M NaOH, 0.3 M glycine, pH 10.5. Fluorescence was measured on a Biotek Synergy H4 plate reader at wavelengths of 365 nm for excitation and 450 nm for emission. Incubations without added enzyme or added inhibitors were used to define no enzyme activity and maximal enzyme activity, respectively. IC50 values were determined by fitting the data to a log[inhibitor concentration] versus response curve using GraphPad Prism. IC50 values were calculated as the concentration of inhibitor required to inhibit GBA2 activity by 50%.

Compound	IC50 [nM]
C[C@@H]1[C@@H](O)[C@H](O)[C@@H](O)CN1CCc1ccc(F)cc1F [Example 41, (2R,3R,4R,5S)-1-(2,4-difluorophenethyl)-2-methylpiperidine-3,4,5-triol]	100 to 1000
C[C@@H]1[C@@H](O)[C@H](O)[C@@H](O)CN1CCc1cc(F)ccc1F [Example 42, (2R,3R,4R,5S)-1-(2,5-difluorophenethyl)-2-methylpiperidine-3,4,5-triol]	< 100
C[C@@H]1[C@@H](O)[C@H](O)[C@@H](O)CN1CCc1ccc(F)c(F)c1 [Example 43, (2R,3R,4R,5S)-1-(3,4-difluorophenethyl)-2-methylpiperidine-3,4,5-triol]	100 to 1000
COc1ccc(CCN2C[C@H](O)[C@@H](O)[C@H](O)[C@H]2C)c(F)c1 [Example 44, (2R,3R,4R,5S)-1-(2-fluoro-4-methoxyphenethyl)-2-methylpiperidine-3,4,5-triol]	100 to 1000
C[C@@H]1[C@@H](O)[C@H](O)[C@@H](O)CN1CCc1ccc(Cl)cc1F [Example 46, (2R,3R,4R,5S)-1-(4-chloro-2-fluorophenethyl)-2-methylpiperidine-3,4,5-triol]	100 to 1000
C[C@@H]1[C@@H](O)[C@H](O)[C@@H](O)CN1CCc1cc(Cl)ccc1F [Example 47, (2R,3R,4R,5S)-1-(5-chloro-2-fluorophenethyl)-2-methylpiperidine-3,4,5-triol]	< 100
C[C@@H]1[C@@H](O)[C@H](O)[C@@H](O)CN1CCc1c(F)cccc1F [Example 48, (2R,3R,4R,5S)-1-(2,6-difluorophenethyl)-2-methylpiperidine-3,4,5-triol]	< 100
C=C(C)c1cc(F)c(CCN2C[C@H](O)[C@@H](O)[C@H](O)[C@H]2C)c(F)c1 [Example 50, (2R,3R,4R,5S)-1-(2,6-difluoro-4-(prop-1-en-2-yl)phenethyl)-2-methylpiperidine-3,4,5-triol]	< 100
C[C@@H]1[C@@H](O)[C@H](O)[C@@H](O)CN1CCc1ccc(OC2CCCOC2)cc1 (stereo partly drawn) [Example 62, (2R,3R,4R,5S)-2-methyl-1-(4-((tetrahydro-2H-pyran-3-yl)oxy)phenethyl)piperidine-3,4,5-triol]	< 100
C[C@@H]1[C@@H](O)[C@H](O)[C@@H](O)CN1CCc1ccc(OC2CCOCC2)cc1 [Example 63, (2R,3R,4R,5S)-2-methyl-1-(4-((tetrahydro-2H-pyran-4-yl)oxy)phenethyl)piperidine-3,4,5-triol]	< 100
C[C@@H]1[C@@H](O)[C@H](O)[C@@H](O)CN1CCc1ccc(OCC2CCOC2)cc1 (stereo partly drawn) [Example 65, (2R,3R,4R,5S)-2-methyl-1-(4-((tetrahydrofuran-3-yl)methoxy)phenethyl)piperidine-3,4,5-triol]	< 100
C[C@@H]1[C@@H](O)[C@H](O)[C@@H](O)CN1CCc1ccc2c(c1)OC(F)(F)O2 [Example 72, (2R,3R,4R,5S)-1-(2-(2,2-difluorobenzo[d][1,3]dioxol-5-yl)ethyl)-2-methylpiperidine-3,4,5-triol]	< 100
C[C@@H]1[C@@H](O)[C@H](O)[C@@H](O)CN1CCc1cccs1 [Example 74, (2R,3R,4R,5S)-2-methyl-1-(2-(thiophen-2-yl)ethyl)piperidine-3,4,5-triol]	100 to 1000
C[C@@H]1[C@@H](O)[C@H](O)[C@@H](O)CN1CCc1ccsc1 [Example 75, (2R,3R,4R,5S)-2-methyl-1-(2-(thiophen-3-yl)ethyl)piperidine-3,4,5-triol]	100 to 1000

same assay, conditions: cellular homogenate of HEK293T cells overexpressing human GBA2, 250 μM 4-methylumbelliferone-β-D glucopyranoside, pH 5.5, 37° C., GCase inhibitor present; read-out: GBA2 IC50

IC50 [nM]	Compound
< 100	C[C@@H]1[C@@H](O)[C@H](O)[C@@H](O)CN1CCc1ccc(OC2CCOC2)cc1 (stereo partly drawn) [Example 61, (2R,3R,4R,5S)-2-methyl-1-(4-((tetrahydrofuran-3-yl)oxy)phenethyl)piperidine-3,4,5-triol]
< 100	C[C@@H]1[C@@H](O)[C@H](O)[C@@H](O)CN1CCc1ccc(Oc2ccccc2)cc1 [Example 64, (2R,3R,4R,5S)-2-methyl-1-(4-phenoxyphenethyl)piperidine-3,4,5-triol]
100 to 1000	C[C@@H]1[C@@H](O)[C@H](O)[C@@H](O)CN1C[C@H](C)c1ccccc1 [Example 66, (2R,3R,4R,5S)-2-methyl-1-((R)-2-phenylpropyl)piperidine-3,4,5-triol]
100 to 1000	C[C@H](CN1C[C@H](O)[C@@H](O)[C@H](O)[C@H]1C)c1ccccc1 [Example 67, (2R,3R,4R,5S)-2-methyl-1-((S)-2-phenylpropyl)piperidine-3,4,5-triol]
< 100	C[C@@H]1[C@@H](O)[C@H](O)[C@@H](O)CN1CCc1ccc(-c2ccccc2)cc1 [Example 68, (2R,3R,4R,5S)-1-(2-([1,1′-biphenyl]-4-yl)ethyl)-2-methylpiperidine-3,4,5-triol]
< 100	C[C@@H]1[C@@H](O)[C@H](O)[C@@H](O)CN1CCc1c(F)cc(-c2ccccc2)cc1F [Example 69, (2R,3R,4R,5S)-1-(2-(3,5-difluoro-[1,1′-biphenyl]-4-yl)ethyl)-2-methylpiperidine-3,4,5-triol]
1000 to 25000	C[C@@H]1[C@@H](O)[C@H](O)[C@@H](O)CN1CCc1ccccn1 [Example 76, (2R,3R,4R,5S)-2-methyl-1-(2-(pyridin-2-yl)ethyl)piperidine-3,4,5-triol]
< 100	C[C@@H]1[C@@H](O)[C@H](O)[C@@H](O)CN1CCCc1ccccc1 [Example 77, (2R,3R,4R,5S)-2-methyl-1-(3-phenylpropyl)piperidine-3,4,5-triol]
< 100	C[C@@H]1[C@@H](O)[C@H](O)[C@@H](O)CN1CCCc1ccccc1F [Example 78, (2R,3R,4R,5S)-1-(3-(2-fluorophenyl)propyl)-2-methylpiperidine-3,4,5-triol]
< 100	C[C@@H]1[C@@H](O)[C@H](O)[C@@H](O)CN1CCCc1ccc(F)cc1 [Example 79, (2R,3R,4R,5S)-1-(3-(4-fluorophenyl)propyl)-2-methylpiperidine-3,4,5-triol]
< 100	C[C@@H]1[C@@H](O)[C@H](O)[C@@H](O)CN1CCCc1cccs1 [Example 80, (2R,3R,4R,5S)-2-methyl-1-(3-(thiophen-2-yl)propyl)piperidine-3,4,5-triol]
< 100	C[C@@H]1[C@@H](O)[C@H](O)[C@@H](O)CN1CCCc1ccsc1 [Example 81, (2R,3R,4R,5S)-2-methyl-1-(3-(thiophen-3-yl)propyl)piperidine-3,4,5-triol]
100 to 1000	C[C@@H]1[C@@H](O)[C@H](O)[C@@H](O)CN1CC1CCN(c2ccccc2)CC1 [Example 82, (2R,3R,4R,5S)-2-methyl-1-((1-phenylpiperidin-4-yl)methyl)piperidine-3,4,5-triol]
< 100	C[C@@H]1[C@@H](O)[C@H](O)[C@@H](O)CN1CC1CCN(c2ccccc2F)CC1 [Example 83, (2R,3R,4R,5S)-1-((1-(2-fluorophenyl)piperidin-4-yl)methyl)-2-methylpiperidine-3,4,5-triol]
